Results published in the NIST ThermoML archive (doi:10.1021/je900672g).

Assay: isobaric coefficient of expansion
Conditions: Liquid, DSC

CC[N+](=O)[O-] [nitroethane]
isobaric coefficient of expansion
Conditions | 278.15 K | 288.15 K | 298.15 K | 308.15 K | 318.15 K | 328.15 K | 338.15 K | 348.15 K
5000 kPa | 0.00113 1/K | 0.00114 1/K | 0.00115 1/K | 0.00117 1/K | 0.00119 1/K | 0.0012 1/K | 0.00122 1/K | 0.00126 1/K
10000 kPa | 0.0011 1/K | 0.00111 1/K | 0.00112 1/K | 0.00114 1/K | 0.00116 1/K | 0.00116 1/K | 0.00119 1/K | 0.00121 1/K
15000 kPa | 0.00109 1/K | 0.00109 1/K | 0.0011 1/K | 0.00111 1/K | 0.00113 1/K | 0.00113 1/K | 0.00114 1/K | 0.00117 1/K
20000 kPa | 0.00106 1/K | 0.00107 1/K | 0.00107 1/K | 0.00109 1/K | 0.0011 1/K | 0.0011 1/K | 0.00111 1/K | 0.00112 1/K
25000 kPa | 0.00104 1/K | 0.00105 1/K | 0.00105 1/K | 0.00106 1/K | 0.00107 1/K | 0.00107 1/K | 0.00108 1/K | 0.0011 1/K
30000 kPa | 0.00102 1/K | 0.00103 1/K | 0.00103 1/K | 0.00104 1/K | 0.00105 1/K | 0.00104 1/K | 0.00106 1/K | 0.00107 1/K
35000 kPa | 0.00101 1/K | 0.00101 1/K | 0.00101 1/K | 0.00102 1/K | 0.00102 1/K | 0.00103 1/K | 0.00103 1/K | 0.00104 1/K
40000 kPa | 0.000984 1/K | 0.000987 1/K | 0.000993 1/K | 0.000994 1/K | 0.000999 1/K | 0.001 1/K | 0.00101 1/K | 0.00101 1/K
45000 kPa | 0.000973 1/K | 0.000972 1/K | 0.000973 1/K | 0.000977 1/K | 0.000981 1/K | 0.000984 1/K | 0.000982 1/K | 0.000989 1/K
50000 kPa | 0.000958 1/K | 0.00096 1/K | 0.00096 1/K | 0.000961 1/K | 0.000964 1/K | 0.000964 1/K | 0.000964 1/K | 0.000966 1/K
55000 kPa | 0.00094 1/K | 0.000944 1/K | 0.000941 1/K | 0.000942 1/K | 0.000945 1/K | 0.000944 1/K | 0.000945 1/K | 0.000947 1/K

N#Cc1ccccc1 [benzonitrile]
isobaric coefficient of expansion
Conditions | 5000 kPa | 10000 kPa | 15000 kPa | 20000 kPa | 25000 kPa | 30000 kPa | 35000 kPa | 40000 kPa | 45000 kPa | 50000 kPa
278.15 K | 0.000841 1/K | 0.000831 1/K | 0.000829 1/K | 0.000812 1/K | 0.000795 1/K | 0.000791 1/K | 0.00078 1/K | 0.000772 1/K | 0.00076 1/K | 0.000752 1/K
288.15 K | 0.000845 1/K | 0.000832 1/K | 0.000819 1/K | 0.000811 1/K | 0.000799 1/K | 0.000789 1/K | 0.000772 1/K | 0.000771 1/K | 0.000759 1/K | 0.000754 1/K
298.15 K | 0.000849 1/K | 0.000832 1/K | 0.000825 1/K | 0.000809 1/K | 0.000798 1/K | 0.000788 1/K | 0.000775 1/K | 0.000773 1/K | 0.000759 1/K | 0.000749 1/K
308.15 K | 0.000852 1/K | 0.000842 1/K | 0.000827 1/K | 0.000814 1/K | 0.000799 1/K | 0.000788 1/K | 0.000773 1/K | 0.000765 1/K | 0.000755 1/K | 0.000743 1/K
318.15 K | 0.000857 1/K | 0.00084 1/K | 0.000826 1/K | 0.000811 1/K | 0.000798 1/K | 0.000789 1/K | 0.000773 1/K | 0.000764 1/K | 0.000754 1/K | 0.000743 1/K
328.15 K | 0.000853 1/K | 0.000837 1/K | 0.000819 1/K | 0.000808 1/K | 0.000794 1/K | 0.000782 1/K | 0.000772 1/K | 0.00076 1/K | 0.000751 1/K | 0.000736 1/K
338.15 K | 0.000863 1/K | 0.000843 1/K | 0.000826 1/K | 0.000813 1/K | 0.000799 1/K | 0.000786 1/K | 0.000776 1/K | 0.000762 1/K | 0.000747 1/K | 0.000738 1/K
348.15 K | 0.00087 1/K | 0.00085 1/K | 0.000832 1/K | 0.000818 1/K | 0.000802 1/K | 0.000788 1/K | 0.000774 1/K | 0.000761 1/K | 0.000749 1/K | 0.000737 1/K
